According to US9521846B2, “Template-fixed peptidomimetics with antimicrobial activity” (priority 2006, dated 2016):
≈ marks a conversion by molar mass, not a printed value. Non-standard residues stand in square brackets, D forms with d. Residues, ends and D or L forms follow the SMILES beside them. Dab = NCC[C@H](N)C(=O)O; Abu = CC[C@H](N)C(=O)O

What was measured:
[1] = Plasma stability, human plasma; format: in vitro ADME
[2] = system: Pseudomonas aeruginosa IMP 1 Livermore 3140; format: cell-based; conditions: IMP 1 Livermore 3140
In short: (§1)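 Antimicrobial values come from two-fold serial dilutions of peptide in Mueller-Hinton broth plus 0.02% BSA, combined with an equal volume of inoculum at approximately 10^6 CFU/ml. The approach followed standard NCCLS broth microdilution, slightly modified.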

[3] = system: Pseudomonas aeruginosa P1021913; format: cell-based; conditions: P1021913
In short: as §1

[4] = system: Pseudomonas aeruginosa P8191900; format: cell-based; conditions: P8191900
In short: as §1

[5] = system: Pseudomonas aeruginosa P1021903; format: cell-based; conditions: P1021903
In short: as §1

[6] = system: human red blood cells (hRBC); experiment: Hemolysis; format: cell-based; conditions: 100
[7] = system: P. aeruginosa
[8] = Plasma stability, rat plasma; format: in vitro ADME
[9] = system: P. aeruginosa ATCC 27853; format: cell-based, Pseudomonas aeruginosa; conditions: ATCC 27853
In short: as §1

[10] = system: HELA cells (Acc57); experiment: Cytotoxicity assay, MTT reduction (LC 50, GI 50); format: cell-based
In short: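 HeLa cells seeded at 7.0×10^3 cells/well, grown 24 h, then exposed to peptides at 12.5, 25 and 50 μM in triplicate for 48 h at 37 °C; MTT (0.5 mg/ml, 2 h), A595 read. Percent growth was taken relative to time-zero plates; LC50 and GI50 were interpolated by linear trend at −50% and 50% growth.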

SMILES | Stability human Plasma t1/2 [1] [h] | MIC P. aeruginosa IMP1 Livermore 3140 [2] [µg/mL] | MIC P. aeruginosa P1021913 [3] [µg/mL] | MIC P. aeruginosa P8191900 [4] [µg/mL] | MIC P. aeruginosa P1021903 [5] [µg/mL] | Hemolysis at 100 μg/ml [6] [%] | Average MIC [7] [µg/mL] | Stability rat Plasma t1/2 [8] [h] | MIC P. aeruginosa ATCC 27853 [9] [µg/mL] | Cytotoxicity GI50 Hela cells [10] [µM]
CC(C)[C@@H]1NC(=O)[C@H](Cc2c[nH]c3ccccc23)NC(=O)[C@H]([C@@H](C)O)NC(=O)[C@@H]2CCCN2C(=O)[C@H]2CCCN2C(=O)[C@H](CCN)NC(=O)[C@H](C)NC(=O)[C@H](CCN)NC(=O)[C@H](CCN)NC(=O)[C@H](Cc2c[nH]c3ccccc23)NC(=O)[C@H](CCN)NC(=O)[C@H](CCN)NC(=O)[C@H](CCCCN)NC(=O)[C@H](CCN)NC1=O [Example 32] (cyclo(TWV[Dab]K[Dab][Dab]W[Dab][Dab]A[Dab][dP]P)) | 5 | 0.22 (≈ 0.14 µM) | 0.10 (≈ 0.0638 µM) | 0.05 (≈ 0.0319 µM) | 0.05 (≈ 0.0319 µM) | 0 | 0.09 | 5 | 0.02 (≈ 0.0128 µM) | 50
CC[C@H](C)[C@@H]1NC(=O)[C@H](Cc2c[nH]c3ccccc23)NC(=O)[C@H]([C@@H](C)O)NC(=O)[C@@H]2CCCN2C(=O)[C@H]2CCCN2C(=O)[C@H](CCN)NC(=O)[C@H](C)NC(=O)[C@H](CCN)NC(=O)[C@H](CCN)NC(=O)[C@H](Cc2c[nH]c3ccccc23)NC(=O)[C@H](CCN)NC(=O)[C@H](CCN)NC(=O)[C@H](CCCCN)NC(=O)[C@H](CCC(N)=O)NC1=O [Example 29] (cyclo(TWIQK[Dab][Dab]W[Dab][Dab]A[Dab][dP]P)) | 5 | 0.40 (≈ 0.249 µM) | 0.21 (≈ 0.131 µM) | 0.13 (≈ 0.0808 µM) | 0.13 (≈ 0.0808 µM) | 0.5 | 0.19 | 5 | 0.09 (≈ 0.0559 µM) | 50
CC[C@@H]1NC(=O)[C@H](CCN)NC(=O)[C@H](CCN)NC(=O)[C@H](Cc2c[nH]c3ccccc23)NC(=O)[C@H](CCN)NC(=O)[C@H](CCN)NC(=O)[C@H](CCCCN)NC(=O)[C@H](CCN)NC(=O)[C@H]([C@@H](C)CC)NC(=O)[C@H](Cc2c[nH]c3ccccc23)NC(=O)[C@H]([C@@H](C)O)NC(=O)[C@@H]2CCCN2C(=O)[C@H]2CCCN2C(=O)[C@H](CCN)NC1=O [Example 6] (cyclo(TWI[Dab]K[Dab][Dab]W[Dab][Dab][Abu][Dab][dP]P)) | 5 | 0.24 (≈ 0.15 µM) | 0.16 (≈ 0.1 µM) | 0.10 (≈ 0.0627 µM) | 0.09 (≈ 0.0564 µM) | 0.2 | 0.13 | 5 | 0.05 (≈ 0.0313 µM) | 50
CC[C@H](C)[C@@H]1NC(=O)[C@H](Cc2c[nH]c3ccccc23)NC(=O)[C@H]([C@@H](C)O)NC(=O)[C@@H]2CCCN2C(=O)[C@H]2CCCN2C(=O)[C@H](CCCCN)NC(=O)[C@H](C)NC(=O)[C@H](CCN)NC(=O)[C@H](CCN)NC(=O)[C@H](Cc2c[nH]c3ccccc23)NC(=O)[C@H](CCN)NC(=O)[C@H](CCN)NC(=O)[C@H](CCCCN)NC(=O)[C@H](CCN)NC1=O [Example 28] (cyclo(TWI[Dab]K[Dab][Dab]W[Dab][Dab]AK[dP]P)) | 5 | 0.24 (≈ 0.149 µM) | 0.16 (≈ 0.0994 µM) | 0.10 (≈ 0.0622 µM) | 0.07 (≈ 0.0435 µM) | 0.1 | 0.12 | 5 | 0.04 (≈ 0.0249 µM) | 50
